According to ChEMBL document CHEMBL5042509, “Benzophenone Glucosides and B-Type Proanthocyanidin Dimers from Zambian Cassia abbreviata and Their Trypanocidal Activities” (J Nat Prod, 2022):
≈ marks a conversion by molar mass, not a printed value.

Legend:
[1] = test system: Trypanosoma brucei gambiense; test: Trypanocidal activity against Trypanosoma brucei gambiense IL1922 assessed as parasite growth inhibition at 50 ug/ml incubated for 3 days by Celltiter-Glo luminescence assay; assay type: functional; parameters: scale not given: the % may be the effect or the level left; conditions: dose 50 µg/ml; time 3 day
[2] = test system: Trypanosoma brucei brucei; test: Trypanocidal activity against Trypanosoma brucei brucei GUTat3.1 assessed as parasite growth inhibition at 50 ug/ml incubated for 3 days by Celltiter-Glo luminescence assay; assay type: functional; parameters: scale not given: the % may be the effect or the level left; conditions: dose 50 µg/ml; time 3 day
Trypanosoma evansi [3] = test: Trypanocidal activity against Trypanosoma evansi assessed as parasite growth inhibition at 50 ug/ml incubated for 3 days by Celltiter-Glo luminescence assay; assay type: functional; parameters: scale not given: the % may be the effect or the level left; conditions: dose 50 µg/ml; time 3 day
Trypanosoma congolense [4] = test: Trypanocidal activity against Trypanosoma congolense IL3000 assessed as parasite growth inhibition incubated for 3 days by Celltiter-Glo luminescence assay; conditions: IL3000, 72 h
[5] = test system: Trypanosoma brucei rhodesiense; test: Trypanocidal activity against Trypanosoma brucei rhodesiense assessed as parasite growth inhibition at 50 ug/ml incubated for 3 days by Celltiter-Glo luminescence assay; assay type: functional; parameters: scale not given: the % may be the effect or the level left; conditions: dose 50 µg/ml; time 3 day
[6] = test system: Trypanosoma brucei rhodesiense; test: Trypanocidal activity against Trypanosoma brucei rhodesiense assessed as parasite growth inhibition incubated for 3 days by Celltiter-Glo luminescence assay; assay type: functional, organism-based; conditions: 72 h
Trypanosoma evansi [7] = test: Trypanocidal activity against Trypanosoma evansi assessed as parasite growth inhibition incubated for 3 days by Celltiter-Glo luminescence assay; assay type: functional, organism-based; conditions: 72 h
[8] = test system: Trypanosoma brucei rhodesiense; test: Trypanocidal activity against Trypanosoma brucei rhodesiense IL1501 assessed as parasite growth inhibition at 50 ug/ml incubated for 3 days by Celltiter-Glo luminescence assay; assay type: functional; parameters: scale not given: the % may be the effect or the level left; conditions: dose 50 µg/ml; time 3 day
[9] = test system: Trypanosoma brucei brucei; test: Trypanocidal activity against Trypanosoma brucei brucei GUTat3.1 assessed as parasite growth inhibition incubated for 3 days by Celltiter-Glo luminescence assay; assay type: functional, organism-based; conditions: GUTat3.1, 72 h
[10] = test system: Trypanosoma brucei rhodesiense; test: Trypanocidal activity against Trypanosoma brucei rhodesiense IL1501 assessed as parasite growth inhibition incubated for 3 days by Celltiter-Glo luminescence assay; assay type: functional, organism-based; conditions: IL1501, 72 h
Trypanosoma congolense [11] = test: Trypanocidal activity against Trypanosoma congolense IL3000 assessed as parasite growth inhibition at 50 ug/ml incubated for 3 days by Celltiter-Glo luminescence assay; parameters: scale not given: the % may be the effect or the level left; conditions: dose 50 µg/ml; time 3 day
[12] = test system: Trypanosoma brucei gambiense; test: Trypanocidal activity against Trypanosoma brucei gambiense IL1922 assessed as parasite growth inhibition incubated for 3 days by Celltiter-Glo luminescence assay; assay type: functional, organism-based; conditions: IL1922, 72 h

Oc1ccc([C@H]2Oc3cc(O)cc(O)c3C[C@@H]2O)cc1
Activity [1]: 90.28% | Activity [2]: 98.54% | Activity (Trypanosoma evansi [3]): 99.7% | IC50 (Trypanosoma congolense [4]): 28.3 µg/mL (≈ 103 µM) | Activity [5]: 99.71% | IC50 [6]: 4.03 µg/mL (≈ 14.7 µM) | IC50 (Trypanosoma evansi [7]): 14.4 µg/mL (≈ 52.6 µM) | Activity [8]: 96.07% | IC50 [9]: 38.6 µg/mL (≈ 141 µM) | IC50 [10]: 45.7 µg/mL (≈ 167 µM) | Activity (Trypanosoma congolense [11]): 99.57% | IC50 [12]: 46.4 µg/mL (≈ 169 µM)
